The values below come from US20250051344A1, “BIFUNCTIONAL SELECTIVE DEGRADERS OF SMARCA2 AND THERAPEUTIC USES THEREOF” (Nurix Therapeutics, Inc., priority 2023, published 2025).

The target of one test is T1, SMARCA2 (Homo sapiens, UniProt P51531).
T1 construct: endogenous in cells
The experiment in a line: SMARCA2 Cellular Degradation Assay (Western blot analysis on Jess platform). It counts as cell-based. The conditions noted are these: for DC50 / Dmax: cellular degradation; for Fold Selectivity SMARCA4/2: ratio DC50 SMARCA4 / DC50 SMARCA2. The essentials: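 SMARCA2 protein in lysates of cells isolated from tumors was measured by capillary immunoassay at 5 μg protein per capillary, using actin as loading reference; degradation was expressed as percent SMARCA2 left compared with vehicle-treated samples.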

A further test deals with T2, SMARCA4 (Homo sapiens, UniProt P51532).
T2 construct: endogenous in cells
T2 sequence (P51532 whole entry, species assumed): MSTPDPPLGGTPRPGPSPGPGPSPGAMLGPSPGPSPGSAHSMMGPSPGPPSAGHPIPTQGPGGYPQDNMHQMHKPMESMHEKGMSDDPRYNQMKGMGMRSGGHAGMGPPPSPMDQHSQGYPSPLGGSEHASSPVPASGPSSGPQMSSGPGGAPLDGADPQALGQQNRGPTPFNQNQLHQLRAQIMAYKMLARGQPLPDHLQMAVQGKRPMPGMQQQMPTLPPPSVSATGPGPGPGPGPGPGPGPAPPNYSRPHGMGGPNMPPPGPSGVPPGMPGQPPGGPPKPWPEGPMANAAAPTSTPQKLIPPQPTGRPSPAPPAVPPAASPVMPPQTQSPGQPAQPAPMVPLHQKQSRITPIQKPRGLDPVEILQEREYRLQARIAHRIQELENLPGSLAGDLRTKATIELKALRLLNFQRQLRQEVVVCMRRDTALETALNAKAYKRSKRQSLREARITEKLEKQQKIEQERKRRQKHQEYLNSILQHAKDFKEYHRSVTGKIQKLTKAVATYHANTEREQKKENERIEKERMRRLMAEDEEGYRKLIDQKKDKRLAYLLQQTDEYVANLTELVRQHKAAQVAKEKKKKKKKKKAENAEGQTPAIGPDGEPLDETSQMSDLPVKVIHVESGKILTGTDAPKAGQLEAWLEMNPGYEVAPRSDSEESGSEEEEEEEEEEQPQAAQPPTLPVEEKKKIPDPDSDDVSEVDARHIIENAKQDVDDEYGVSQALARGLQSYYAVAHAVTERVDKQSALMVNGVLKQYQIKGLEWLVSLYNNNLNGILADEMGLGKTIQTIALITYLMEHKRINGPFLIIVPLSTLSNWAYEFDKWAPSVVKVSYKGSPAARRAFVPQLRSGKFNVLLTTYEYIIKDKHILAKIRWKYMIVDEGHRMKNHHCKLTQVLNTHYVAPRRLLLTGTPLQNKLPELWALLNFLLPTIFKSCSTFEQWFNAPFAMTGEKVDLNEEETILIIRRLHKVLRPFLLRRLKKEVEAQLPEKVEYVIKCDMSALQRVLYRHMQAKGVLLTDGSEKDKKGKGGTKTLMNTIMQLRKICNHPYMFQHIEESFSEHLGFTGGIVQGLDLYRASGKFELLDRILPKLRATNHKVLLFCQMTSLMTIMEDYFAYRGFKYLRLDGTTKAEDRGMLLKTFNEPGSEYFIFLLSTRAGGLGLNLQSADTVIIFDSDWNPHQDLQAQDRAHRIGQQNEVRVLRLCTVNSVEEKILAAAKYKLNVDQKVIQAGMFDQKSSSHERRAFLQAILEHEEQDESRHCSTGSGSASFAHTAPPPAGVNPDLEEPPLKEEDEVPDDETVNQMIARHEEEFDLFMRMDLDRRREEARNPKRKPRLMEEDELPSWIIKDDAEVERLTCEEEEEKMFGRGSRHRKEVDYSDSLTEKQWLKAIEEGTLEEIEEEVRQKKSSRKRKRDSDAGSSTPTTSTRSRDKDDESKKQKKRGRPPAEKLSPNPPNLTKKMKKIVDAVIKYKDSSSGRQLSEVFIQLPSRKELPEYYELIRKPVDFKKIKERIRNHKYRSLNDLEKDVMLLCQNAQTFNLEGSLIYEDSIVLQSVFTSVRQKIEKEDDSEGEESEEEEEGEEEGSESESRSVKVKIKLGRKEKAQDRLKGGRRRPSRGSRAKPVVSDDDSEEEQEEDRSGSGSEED
The test can be described thus: Cellular degradation assay, SMARCA4 (Table 1). It is filed as cell-based.

T1 sequence (P51531 whole entry, species assumed): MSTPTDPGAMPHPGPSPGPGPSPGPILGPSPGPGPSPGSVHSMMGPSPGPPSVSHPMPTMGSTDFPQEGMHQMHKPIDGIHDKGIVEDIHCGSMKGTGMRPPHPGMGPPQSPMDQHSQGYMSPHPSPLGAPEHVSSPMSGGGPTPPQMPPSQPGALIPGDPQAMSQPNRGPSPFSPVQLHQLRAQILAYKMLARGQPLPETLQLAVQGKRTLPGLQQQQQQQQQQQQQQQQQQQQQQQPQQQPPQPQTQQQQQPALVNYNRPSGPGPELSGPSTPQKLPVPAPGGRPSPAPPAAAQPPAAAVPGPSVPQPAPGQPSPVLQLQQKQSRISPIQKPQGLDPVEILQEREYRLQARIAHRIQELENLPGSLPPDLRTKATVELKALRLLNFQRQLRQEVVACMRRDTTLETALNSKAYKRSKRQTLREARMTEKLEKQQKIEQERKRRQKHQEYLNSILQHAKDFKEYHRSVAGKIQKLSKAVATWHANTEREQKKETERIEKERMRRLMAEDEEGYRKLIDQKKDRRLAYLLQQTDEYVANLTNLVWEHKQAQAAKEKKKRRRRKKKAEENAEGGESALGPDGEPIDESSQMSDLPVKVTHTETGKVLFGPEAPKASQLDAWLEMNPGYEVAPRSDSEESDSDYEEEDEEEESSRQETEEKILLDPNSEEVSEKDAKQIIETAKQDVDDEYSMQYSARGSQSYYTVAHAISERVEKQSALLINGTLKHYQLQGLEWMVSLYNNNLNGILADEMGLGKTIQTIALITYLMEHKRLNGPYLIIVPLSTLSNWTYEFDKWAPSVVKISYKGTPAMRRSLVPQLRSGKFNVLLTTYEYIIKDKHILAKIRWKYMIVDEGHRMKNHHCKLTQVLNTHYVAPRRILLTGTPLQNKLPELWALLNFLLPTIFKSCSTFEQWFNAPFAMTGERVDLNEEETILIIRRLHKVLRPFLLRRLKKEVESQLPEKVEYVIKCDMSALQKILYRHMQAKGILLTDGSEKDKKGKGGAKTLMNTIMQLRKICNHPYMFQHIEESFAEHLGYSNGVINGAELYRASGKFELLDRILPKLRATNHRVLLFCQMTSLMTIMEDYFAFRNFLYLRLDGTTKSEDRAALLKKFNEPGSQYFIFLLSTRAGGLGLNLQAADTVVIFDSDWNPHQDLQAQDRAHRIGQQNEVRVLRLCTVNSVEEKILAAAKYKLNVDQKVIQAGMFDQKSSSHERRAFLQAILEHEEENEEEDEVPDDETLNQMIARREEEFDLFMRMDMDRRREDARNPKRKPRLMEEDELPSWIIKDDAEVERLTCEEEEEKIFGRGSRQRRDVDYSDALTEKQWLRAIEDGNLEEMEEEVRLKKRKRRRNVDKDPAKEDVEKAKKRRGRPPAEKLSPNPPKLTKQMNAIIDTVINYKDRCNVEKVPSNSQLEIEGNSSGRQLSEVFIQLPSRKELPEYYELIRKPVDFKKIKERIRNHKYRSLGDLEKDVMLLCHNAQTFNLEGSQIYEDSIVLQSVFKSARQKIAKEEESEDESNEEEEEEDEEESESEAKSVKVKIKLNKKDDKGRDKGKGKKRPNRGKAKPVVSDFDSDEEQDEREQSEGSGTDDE

Turning to `Cn1ccc(OC2(C(=O)N3CC4(CN(CCC5CCN(c6cccc7c6n(C)c(=O)n7C6CCC(=O)NC6=O)CC5)C4)C3)CCN(c3cnnc(-c4ccccc4O)c3)CC2)n1` (racemic) [Example 67, rac-3-(4-(4-(2-(6-(1-(6-(2-hydroxyphenyl)pyridazin-4-yl)-4-((1-methyl-1H-pyrazol-3-yl)oxy)piperidine-4-carbonyl)-2,6-diazaspiro[3.3]heptan-2-yl)ethyl)piperidin-1-yl)-3-methyl-2-oxo-2,3-dihydro-1h-benzo[d]imidazol-1-yl)piperidine-2,6-dione], at SMARCA2, the DC50 – broadly, the concentration giving 50% degradation – came to 0.4 nM; the Dmax (in general, the greatest extent of degradation seen) is 96.2%; the “Fold Selectivity SMARCA4/2” value is listed as 51. On SMARCA4, the half-maximal degradation concentration (DC50) stood at 20.4 nM and the Dmax was determined as 72.9%.
Take `COC1(C(=O)N(C)C2CCN(CCC3CCN(c4cccc5c4n(C)c(=O)n5C4CCC(=O)NC4=O)CC3)CC2)CCN(c2cnnc(-c3ccccc3O)c2)CC1` (racemic) [Example 68, rac-N-(1-(2-(1-(1-(2,6-dioxopiperidin-3-yl)-3-methyl-2-oxo-2,3-dihydro-1H-benzo[d]imidazol-4-yl)piperidin-4-yl)ethyl)piperidin-4-yl)-1-(6-(2-hydroxyphenyl)pyridazin-4-yl)-4-methoxy-n-methylpiperidine-4-carboxamide]: at SMARCA2, half-maximal degradation (DC50) was put at 0.57 nM, the greatest degradation seen (Dmax) is 93.2% and the “Fold Selectivity SMARCA4/2” value was determined as 34. Also, on SMARCA4, the half-maximal degradation concentration (DC50) is 19.2 nM and the Dmax was 66.9%.
As for `CN(C(=O)C1(c2ccccc2)CCN(c2cnnc(-c3ccccc3O)c2)CC1)C1CCN(CCC2CCN(c3ccc(C4CCC(=O)NC4=O)cn3)CC2)CC1` (racemic) [Example 69, rac-N-(1-(2-(1-(5-(2,6-dioxopiperidin-3-yl)pyridin-2-yl)piperidin-4-yl)ethyl)piperidin-4-yl)-1-(6-(2-hydroxyphenyl)pyridazin-4-yl)-N-methyl-4-phenylpiperidine-4-carboxamide], at SMARCA2, it took 6.23 nM to reach half-maximal degradation (DC50), the Dmax was found to be 85.3% and the “Fold Selectivity SMARCA4/2” value amounted to 1605. Besides, the Dmax on SMARCA4 amounted to 44.1%.
For `CN(C(=O)C1(OC2CC2)CCN(c2cnnc(-c3ccccc3O)c2)CC1)C1CCN(CCC2CCN(c3ccc([C@H]4CCC(=O)NC4=O)c(F)c3)CC2)CC1` (racemic) [Example 70, rac-(r)-4-cyclopropoxy-n-(1-(2-(1-(4-(2,6-dioxopiperidin-3-yl)-3-fluorophenyl)piperidin-4-yl)ethyl)piperidin-4-yl)-1-(6-(2-hydroxyphenyl)pyridazin-4-yl)-n-methylpiperidine-4-carboxamide] the same measures were 8.6 nM, 81.4%, 1163 and 35.1%.
In the case of `COC1(C(=O)N(C)C2CCN(CCC3CCN(c4ccc(C5CCC(=O)NC5=O)c(F)c4)CC3)CC2)CCN(c2cnnc(-c3ccccc3O)c2)CC1` (racemic) [Example 71, rac-N-(1-(2-(1-(4-(2,6-dioxopiperidin-3-yl)-3-fluorophenyl)piperidin-4-yl)ethyl)piperidin-4-yl)-1-(6-(2-hydroxyphenyl)pyridazin-4-yl)-4-methoxy-n-methylpiperidine-4-carboxamide], at SMARCA2, it took 8.07 nM to reach half-maximal degradation (DC50), the maximal degradation (Dmax) turned out to be 81.6% and the “Fold Selectivity SMARCA4/2” value is listed as 1239. In addition, at SMARCA4, the maximal degradation (Dmax) came to 32.2%.
As to `Cn1c(=O)n([C@H]2CCC(=O)NC2=O)c2cccc(N3CCC(C(=O)N4C[C@@H]5[C@H](C4)[C@H]5C(=O)NCC4(c5ccccc5)CCN(c5cnnc(-c6ccccc6O)c5)CC4)CC3)c21` (racemic) [Example 72, (1r,5s,6r)-3-(1-(1-((rs)-2,6-dioxopiperidin-3-yl)-3-methyl-2-oxo-2,3-dihydro-1h-benzo[d]imidazol-4-yl)piperidine-4-carbonyl)-n-((1-(6-(2-hydroxyphenyl)pyridazin-4-yl)-4-phenylpiperidin-4-yl)methyl)-3-azabicyclo[3.1.0]hexane-6-carboxamide], on SMARCA2, half-maximal degradation (DC50) was put at 0.61 nM, the Dmax turned out to be 95.8% and the “Fold Selectivity SMARCA4/2” value is recorded as 42. On SMARCA4, this compound showed a DC50 of 25.9 nM and a maximal degradation (Dmax) of 75.4%.
`O=C1CC[C@@H](c2ccc(C3CCN(CC(=O)N4C[C@@H]5[C@H](C4)[C@H]5C(=O)NCC4(c5ccccc5)CCN(c5cnnc(-c6ccccc6O)c5)CC4)CC3)cc2)C(=O)N1` (racemic) [Example 73, (1R,5S,6S)-3-[2-(4-{4-[(3RS)-2,6-dioxopiperidin-3-yl]phenyl}piperidin-1-yl)acetyl]-N-({1-[6-(2-hydroxyphenyl)pyridazin-4-yl]-4-phenylpiperidin-4-yl}methyl)-3-azabicyclo[3.1.0]hexane-6-carboxamide]: at SMARCA2, the DC50 was 11 nM, the Dmax came to 79.8% and the “Fold Selectivity SMARCA4/2” value is 910. In addition, the maximal degradation (Dmax) on SMARCA4 stood at 21%.
In the case of `CN(C(=O)C1(c2ccncc2)CCN(c2cnnc(-c3ccccc3O)c2)CC1)C1CCN(CCC2CCN(c3ccc(C4CCC(=O)NC4=O)c(F)c3)CC2)CC1` (racemic) [Example 75, rac-N-{1-[2-(1-{4-[(3R)-2,6-dioxopiperidin-3-yl]-3-fluorophenyl}piperidin-4-yl)ethyl]piperidin-4-yl}-1-[6-(2-hydroxyphenyl)pyridazin-4-yl]-n-methyl-4-(pyridin-4-yl)piperidine-4-carboxamide], on SMARCA2, the half-maximal degradation concentration (DC50) came to 2.18 nM, the maximal degradation (Dmax) was found to be 90% and the “Fold Selectivity SMARCA4/2” value worked out at 4587. This compound came in with a Dmax at SMARCA4 of 35.3%.
As to `C[C@H]1C[C@H](NC(=O)C2(c3ccccc3)CCN(c3cnnc(-c4ccccc4O)c3)CC2)CCN1C(=O)CN1CCC(c2ccc([C@H]3CCC(=O)NC3=O)cc2)CC1` (racemic) [Example 76, n-((2s,4r)-1-(2-(4-(4-((rs)-2,6-dioxopiperidin-3-yl)phenyl)piperidin-1-yl)acetyl)-2-methylpiperidin-4-yl)-1-(6-(2-hydroxyphenyl)pyridazin-4-yl)-4-phenylpiperidine-4-carboxamide], on SMARCA2, the DC50 stood at 9.53 nM, the Dmax amounted to 83.5% and the “Fold Selectivity SMARCA4/2” value worked out at 1049. Also, the Dmax on SMARCA4 is 24.7%.
The corresponding values for `CN(C(=O)C1(c2cc3ccccn3n2)CCN(c2cnnc(-c3ccccc3O)c2)CC1)C1CCN(CCC2CCN(c3ccc(C4CCC(=O)NC4=O)cc3)CC2)CC1` (racemic) [Example 77, rac-N-{1-[2-(1-{4-[(3R)-2,6-dioxopiperidin-3-yl]phenyl}piperidin-4-yl)ethyl]piperidin-4-yl}-1-[6-(2-hydroxyphenyl)pyridazin-4-yl]-N-methyl-4-{pyrazolo[1,5-a]pyridin-2-yl}piperidine-4-carboxamide] are 4.12 nM, 87%, 2427 and 44.2%.
The corresponding values for `Cc1ccnn1C1(C(=O)N(C)C2CCN(CCC3CCN(c4ccc([C@H]5CCC(=O)NC5=O)cc4)CC3)CC2)CCN(c2cnnc(-c3ccccc3O)c2)CC1` (racemic) [Example 78, rac-N-{1-[2-(1-{4-[(3R)-2,6-dioxopiperidin-3-yl]phenyl}piperidin-4-yl)ethyl]piperidin-4-yl}-1-[6-(2-hydroxyphenyl)pyridazin-4-yl]-N-methyl-4-(5-methyl-1H-pyrazol-1-yl)piperidine-4-carboxamide] are 5.1 nM, 85.8%, 1961 and 37.4%.
For `CC(C)c1cc(C2(C(=O)N3CC4(CN(CCC5CCN(c6ccc(C7CCC(=O)NC7=O)cc6)CC5)C4)C3)CCN(c3cnnc(-c4ccccc4O)c3)CC2)no1` (racemic) [Example 79, rac-(3R)-3-(4-{4-[2-(6-{1-[6-(2-hydroxyphenyl)pyridazin-4-yl]-4-[5-(propan-2-yl)-1,2-oxazol-3-yl]piperidine-4-carbonyl}-2,6-diazaspiro[3.3]heptan-2-yl)ethyl]piperidin-1-yl}phenyl)piperidine-2,6-dione] the same measures were 12.4 nM, 70.7%, 806 and 21.9%.
With `O=C1CCC(c2ccc(N3CCC(CCN4CC5(C4)CN(C(=O)C4(c6cc7ccccn7n6)CCN(c6cnnc(-c7ccccc7O)c6)CC4)C5)CC3)cc2)C(=O)N1` (racemic) [Example 80, rac-(3R)-3-(4-{4-[2-(6-{1-[6-(2-hydroxyphenyl)pyridazin-4-yl]-4-{pyrazolo[1,5-a]pyridin-2-yl}piperidine-4-carbonyl}-2,6-diazaspiro[3.3]heptan-2-yl)ethyl]piperidin-1-yl}phenyl)piperidine-2,6-dione], on SMARCA2, the DC50 amounted to 14.2 nM, the Dmax worked out at 60% and the “Fold Selectivity SMARCA4/2” value is 705. The Dmax on SMARCA4 was 21.9%.
On to `COC1(C(=O)N2CC3(CN(CCC4CCN(c5ccc(C6CCC(=O)NC6=O)cc5)CC4)C3)C2)CCN(c2cnnc(-c3ccccc3O)c2)CC1` (racemic) [Example 82, rac-3-(4-(4-(2-(6-(1-(6-(2-hydroxyphenyl)pyridazin-4-yl)-4-methoxypiperidine-4-carbonyl)-2,6-diazaspiro[3.3]heptan-2-yl)ethyl)piperidin-1-yl)phenyl)piperidine-2,6-dione], for which, at SMARCA2, the half-maximal degradation concentration (DC50) turned out to be 11.3 nM, the Dmax was determined as 71.2% and the “Fold Selectivity SMARCA4/2” value was 883. The greatest degradation seen (Dmax) on SMARCA4 worked out at 23.8%.
Turning to `COC1(C(=O)NCC2(c3ccccc3)CCN(c3cnnc(-c4ccccc4O)c3)CC2)CCN(CCC2CCN(c3ccc([C@H]4CCC(=O)NC4=O)cc3)CC2)CC1` (racemic) [Example 83, rac-(r)-1-(2-(1-(4-(2,6-dioxopiperidin-3-yl)phenyl)piperidin-4-yl)ethyl)-n-((1-(6-(2-hydroxyphenyl)pyridazin-4-yl)-4-phenylpiperidin-4-yl)methyl)-4-methoxypiperidine-4-carboxamide], on SMARCA2, the DC50 amounted to 2.3 nM, the greatest degradation seen (Dmax) was determined as 91.8% and the “Fold Selectivity SMARCA4/2” value stood at 9. For the same compound, at SMARCA4, it took 20.2 nM to reach half-maximal degradation (DC50) and the Dmax came out at 73.3%.
